Results: ChEMBL document CHEMBL1144359, “Synthesis and antitumor activity of the hexacyclic camptothecin derivatives” (Bioorg Med Chem Lett, 2005)

What was measured:
Bel-7402 = test: In-vitro inhibitory concentration for human tumor BEL-7402 cell-line was determined using MTT assay after 3 days of incubation; assay type: functional, cell-based; settings: Bel-7402, 72 h
[1] = In-vitro inhibitory concentration for human tumor HELA cell-line was determined using MTT assay after 3 days of incubation; assay type: functional, cell-based; settings: 72 h
HL-60 = test: In-vitro inhibitory concentration for human tumor HL60 cell-line was determined using […] assay after 3 days of incubation; assay type: functional, cell-based; settings: HL-60, 72 h
[2] = In-vitro inhibitory concentration for human tumor HCT116 cell-line was determined using MTT assay after 3 days of incubation; assay type: functional, cell-based; settings: HCT-116, 72 h
Mus musculus [3] = test: Average tumor weight in mouse with tumor sarcoma-180 after intraperitoneal (i.p.) injection at a dose of 40 mg/Kg; assay type: functional
Mus musculus [4] = test: Percent body weight change in mouse with tumor sarcoma-180 after intraperitoneal (i.p.) injection at a dose of 40 mg/Kg; assay type: functional
[5] = Lethal toxicity in mouse with tumor sarcoma-180 after intraperitoneal (i.p.) injection at a dose of 40 mg/Kg of total 8 tested; settings: in vivo, ip
Mus musculus [6] = test: Percent tumor-weight inhibition in mouse with tumor sarcoma-180 after intraperitoneal (i.p.) injection at a dose of 40 mg/Kg; assay type: functional
Mus musculus [7] = test: Percent body weight change in mouse with tumor sarcoma-180 after intraperitoneal (i.p.) injection at a dose of 0.5 mg/Kg; assay type: functional
Mus musculus [8] = test: Percent tumor-weight inhibition in mouse with tumor sarcoma-180 after intraperitoneal (i.p.) injection at a dose of 0.5 mg/Kg; assay type: functional
[9] = Lethal toxicity in mouse with tumor sarcoma-180 after intraperitoneal (i.p.) injection at a dose of 0.5 mg/Kg of total 8 tested; settings: in vivo, ip
Mus musculus [10] = test: Average tumor weight in mouse with tumor sarcoma-180 after intraperitoneal (i.p.) injection at a dose of 1 mg/Kg; assay type: functional
[11] = Lethal toxicity in mouse with tumor sarcoma-180 after intraperitoneal (i.p.) injection at a dose of 1.0 mg/Kg of total 8 tested; settings: in vivo, ip
Mus musculus [12] = test: Percent tumor-weight inhibition in mouse with tumor sarcoma-180 after intraperitoneal (i.p.) injection at a dose of 1 mg/Kg; assay type: functional
Mus musculus [13] = test: Percent body weight change in mouse with tumor sarcoma-180 after intraperitoneal (i.p.) injection at a dose of 1 mg/Kg; assay type: functional
Mus musculus [14] = test: Average tumor weight in mouse with tumor sarcoma-180 after intraperitoneal (i.p.) injection at a dose of 0.5 mg/Kg; assay type: functional
Mus musculus [15] = test: Percent tumor-weight inhibition in mouse with tumor sarcoma-180 after intraperitoneal (i.p.) injection at a dose of 5 mg/Kg; assay type: functional
Mus musculus [16] = test: Percent body weight change in mouse with tumor sarcoma-180 after intraperitoneal (i.p.) injection at a dose of 2.5 mg/Kg; assay type: functional
Mus musculus [17] = test: Percent body weight change in mouse with tumor sarcoma-180 after intraperitoneal (i.p.) injection at a dose of 5 mg/Kg; assay type: functional
[18] = Lethal toxicity in mouse with tumor sarcoma-180 after intraperitoneal (i.p.) injection at a dose of 5.0 mg/Kg of total 8 tested; settings: in vivo, ip
Mus musculus [19] = test: Average tumor weight in mouse with tumor sarcoma-180 after intraperitoneal (i.p.) injection at a dose of 5 mg/Kg; assay type: functional
[20] = Lethal toxicity in mouse with tumor sarcoma-180 after intraperitoneal (i.p.) injection at a dose of 2.5 mg/Kg of total 8 tested; settings: in vivo, ip
Mus musculus [21] = test: Percent tumor-weight inhibition in mouse with tumor sarcoma-180 after intraperitoneal (i.p.) injection at a dose of 2.5 mg/Kg; assay type: functional
Mus musculus [22] = test: Average tumor weight in mouse with tumor sarcoma-180 after intraperitoneal (i.p.) injection at a dose of 2.5 mg/Kg; assay type: functional
Mus musculus [23] = test: Percent tumor-weight inhibition in mouse with tumor sarcoma-180 after intraperitoneal (i.p.) injection at a dose of 75 mg/Kg; assay type: functional
[24] = Lethal toxicity in mouse with tumor sarcoma-180 after intraperitoneal (i.p.) injection at a dose of 75 mg/Kg of total 10 tested; settings: in vivo, ip
Mus musculus [25] = test: Average tumor weight in mouse with tumor sarcoma-180 after intraperitoneal (i.p.) injection at a dose of 75 mg/Kg; assay type: functional
Mus musculus [26] = test: Percent body weight change in mouse with tumor sarcoma-180 after intraperitoneal (i.p.) injection at a dose of 75 mg/Kg; assay type: functional

Structure (SMILES)	IC50 (Bel-7402)	IC50 [1]	IC50 (HL-60)	IC50 [2]	further results
CC[C@@]1(O)C(=O)OCc2c1cc1n(c2=O)Cc2cc3c4c(ccc3nc2-1)OC(CO)C4 (some centres not stated)	19 nM	25 nM	8.7 nM	2.6 nM	
CCc1c2c(nc3ccc4occc4c13)-c1cc3c(c(=O)n1C2)COC(=O)[C@]3(O)CC	2.6 nM	2.3 nM	0.28 nM	1.7 nM	
CCc1c2c(nc3ccc4c(c13)CC(O)O4)-c1cc3c(c(=O)n1C2)COC(=O)[C@]3(O)CC (some centres not stated)	4.4 nM	20 nM	4.2 nM	1.4 nM	
CC[C@@]1(O)C(=O)OCc2c1cc1n(c2=O)Cc2cc3c4c(ccc3nc2-1)OC(C)C4 (some centres not stated)	7.4 nM	10 nM	3.1 nM	4.9 nM	
CCc1c2c(nc3ccc4c(c13)CC(COC(C)=O)O4)-c1cc3c(c(=O)n1C2)COC(=O)[C@]3(O)CC (some centres not stated)	11 nM	14 nM	9.1 nM	0.52 nM	
CC[C@@]1(O)C(=O)OCc2c1cc1n(c2=O)Cc2cc3c4c(ccc3nc2-1)OC(COC(C)=O)C4 (some centres not stated)	15 nM	11 nM	11 nM	4.3 nM	
CCc1c2c(nc3ccc(OC(=O)N4CCC(N5CCCCC5)CC4)cc13)-c1cc3c(c(=O)n1C2)COC(=O)[C@]3(O)CC [IRINOTECAN]					TW (Mus musculus [3]): 0.01; BWC (Mus musculus [4]): -28%; No. of mice dead [5]: 0; TWI (Mus musculus [6]): 99.4%
CC[C@@]1(O)C(=O)OCc2c1cc1n(c2=O)Cc2cc3c(ccc4occc43)nc2-1	1.6 nM	15 nM	3 nM	1.6 nM	BWC (Mus musculus [7]): 26%; TWI (Mus musculus [8]): 85%; No. of mice dead [9]: 0; TW (Mus musculus [10]): 0.03; No. of mice dead [11]: 0; TWI (Mus musculus [12]): 98%; BWC (Mus musculus [13]): -34%; TW (Mus musculus [14]): 0.23
CC[C@@]1(O)C(=O)OCc2c1cc1n(c2=O)Cc2cc3c4c(ccc3nc2-1)OC(O)C4 (some centres not stated)	2.6 nM		8.4 nM	3.2 nM	TWI (Mus musculus [15]): 97%; BWC (Mus musculus [16]): 5%; BWC (Mus musculus [17]): -31%; No. of mice dead [18]: 0; TW (Mus musculus [19]): 0.05; No. of mice dead [20]: 0; TWI (Mus musculus [21]): 70%; TW (Mus musculus [22]): 0.45
CCc1c2c(nc3ccc4c(c13)CC(CO)O4)-c1cc3c(c(=O)n1C2)COC(=O)[C@]3(O)CC (some centres not stated)	7.8 nM	23 nM	7.1 nM	3.8 nM	
O=c1[nH]cc(F)c(=O)[nH]1 [FLUOROURACIL]					TWI (Mus musculus [23]): 86%; No. of mice dead [24]: 0; TW (Mus musculus [25]): 0.22; BWC (Mus musculus [26]): 31%
CCc1c2c(nc3ccc4c(c13)CC(C)O4)-c1cc3c(c(=O)n1C2)COC(=O)[C@]3(O)CC (some centres not stated)	7.5 nM	19 nM	4.9 nM	2.6 nM	
CCc1c2c(nc3ccc(O)cc13)-c1cc3c(c(=O)n1C2)COC(=O)[C@]3(O)CC [7-ETHYL-10-HYDROXYCAMPTOTHECIN]	13 nM	22 nM	19 nM	3.3 nM	
